Values quoted from earlier work in patent US20110020841A1, “CENTROSOME AMPLIFICATION AS A BIOSENSOR FOR DNA DAMAGE” (National University of Ireland, Galway, priority 2006, published 2011).

Tested on: Chk1 kinase
Conditions: inhibition of Chk1 kinase with the drug; vertebrate cells; reference 11

SMILES: CN[C@@H]1C[C@H]2O[C@@](C)([C@@H]1OC)n1c3ccccc3c3c4c(c5c6ccccc6n2c5c31)C(=O)N[C@@H]4O [UCN-01]
- DNA damage-induced centrosome amplification: suppresses DNA damage-centrosome amplification
